Experimental findings from US20090215684A1, “Use of BPI Protein for Treatment of Diseases” (BRIDGE BIORESEARCH LIMITED, priority 2005, published 2009) are described below.

Experiment [1] relates to subjects with glucose intolerance. Nature of the experiment: Insulin sensitivity by HOMA (Homeostasis model assessment) in the metformin study. The format is in vivo, human. The following applies: mean ± SD. On the procedure:
(§1) The clinical study was performed in accordance with the Declaration of Helsinki (revised version of Hong Kong 1989) as well as with the EC Note for guidance “Good clinical practice for studies on medicinal products in the European Community”. It was approved by the local Ethics Committee and the Spanish Health Department (Clinical assay number: 97/337). Thirty-one patients were randomized either to placebo or metformin according to the randomization tablets supply generated by LIPHA using the computer program RANCODE +3.1. A dietician with the aim of assuring a stable weight gave general diabetic dietary advice at the beginning of the study. Two months after the first visit (visit 2) subjects started taking metformin or placebo, one tablet per day (850 mg) for the first week and then two tablets per day (one after breakfast and one after dinner) for the following eleven weeks. Drug compliance was checked by tablet counts and any side effect was recorded at visit 3 (6 weeks after randomization) and at visit 4 (at the end of the study).
To assess glucose tolerance, an OGTT was performed after an overnight fast. Insulin sensitivity was evaluated by HOMA (Homeostasis model assessment) using basal (mean of three samples obtained at 5 minutes interval) glucose and insulin (Bonora E, et al., Diabetes Care, 2000, vol. 23, pp. 57-63). Beta cell function was calculated by CIGMA (Continuous infusion of glucose with model assessment) from achieved C-peptide and glucose values (Hosker J P, et al., Diabetologia 1985, vol. 28, pp. 401-11). CIGMA test consists of a continuous intravenous infusion of 5-mg glucose per kg of ideal body weight.min^−1 using a 10 g.dl^−1 glucose solution with model assessment of glucose, insulin and C-peptide (RIA, Byk-Sangtec Diagnostica, Dietzenbach, Germany) values obtained before (basal value, mean value of three samples obtained at 5 minute intervals) and at the end (achieved value, mean value of samples obtained at 50, 55 and 60 minutes) of the test. […]

For the next experiment, the system named is BPI. Nature of the experiment: Circulating plasma BPI (BPI ELISA) in the metformin study. It is filed as in vivo, human. On the procedure:
BPI ELISA: Plasma EDTA BPI concentrations were measured by a sandwich enzyme-linked immunosorbent assay (Human BPI ELISA kit, HyCult biotechnology b.v.; P B Uden, The Netherlands) according to the manufacturer's instructions. The kit has an assay sensitivity of 250 pg/ml. […] The clinical study was performed in accordance with the Declaration of Helsinki (revised version of Hong Kong 1989) as well as with the EC Note for guidance “Good clinical practice for studies on medicinal products in the European Community”. It was approved by the local Ethics Committee and the Spanish Health Department (Clinical assay number: 97/337). Thirty-one patients were randomized either to placebo or metformin according to the randomization tablets supply generated by LIPHA using the computer program RANCODE +3.1. A dietician with the aim of assuring a stable weight gave general diabetic dietary advice at the beginning of the study. Two months after the first visit (visit 2) subjects started taking metformin or placebo, one tablet per day (850 mg) for the first week and then two tablets per day (one after breakfast and one after dinner) for the following eleven weeks. Drug compliance was checked by tablet counts and any side effect was recorded at visit 3 (6 weeks after randomization) and at visit 4 (at the end of the study).

Experiment [2] relates to subjects with glucose intolerance. The experiment in a line: CIGMA (continuous infusion of glucose with model assessment) in the metformin study. It is filed as in vivo, human. The following applies: mean ± SD; for Achieved C-peptide / Achieved glucose / Achieved insulin: after intravenous glucose. The method, then:
as §1
To assess glucose tolerance, an OGTT was performed after an overnight fast. Insulin sensitivity was evaluated by HOMA (Homeostasis model assessment) using basal (mean of three samples obtained at 5 minutes interval) glucose and insulin (Bonora E, et al., Diabetes Care, 2000, vol. 23, pp. 57-63). Beta cell function was calculated by CIGMA (Continuous infusion of glucose with model assessment) from achieved C-peptide and glucose values (Hosker J P, et al., Diabetologia 1985, vol. 28, pp. 401-11). CIGMA test consists of a continuous intravenous infusion of 5-mg glucose per kg of ideal body weight.min^−1 using a 10 g.dl^−1 glucose solution with model assessment of glucose, insulin and C-peptide (RIA, Byk-Sangtec Diagnostica, Dietzenbach, Germany) values obtained before (basal value, mean value of three samples obtained at 5 minute intervals) and at the end (achieved value, mean value of samples obtained at 50, 55 and 60 minutes) of the test. C-peptide detection level was 0.1 ng/ml and had intra- and inter-assay coefficients of variation of 2.6% and 4.4%.

The test system is the same in experiment [3]. Nature of the experiment: Randomized clinical study of metformin vs placebo in glucose-intolerant patients: anthropometric and fasting variables. It is filed as in vivo, human. The following applies: mean ± SD; for BMI: 9 patients.
Source text: The objective of this study was to evaluate the effects of changing insulin action—after treatment with an insulin sensitizer (metformin)—on circulating BPI in subjects with glucose intolerance.
Patients were recruited from the Diabetes and Endocrinology Unit at Hospital de Girona Dr Josep Trueta. They were offered participation in the study if they were between 30 and 65 years old and fulfilled all the inclusion criteria. Men and women were both included, but women only when surgical sterility was documented or when they were post-menopausal or when a reliable method of contraception was used. The inclusion criteria were as follows: a) body mass index (BMI) between 22 and 35 kg/m^2, b) impaired glucose tolerance by an OGTT performed two months before the beginning of the study or a fasting glucose level between 110 and 140 mg/dl, c) stability of diet and physical exercise within the past two months. All subjects signed a written informed consent.
as §1
Out of 118 pre-selected subjects, 31 patients were randomized for the study (16 to metformin and 15 to placebo). Six patients ([…] and 3 on placebo) discontinued early and two non-compliant patients were excluded (both in metformin group). 21 patients (9 on metformin and 12 on placebo) were finally analyzed.

Experiment [4] has the same test system. The experiment in a line: Oral glucose tolerance test (OGTT) in the metformin study. The format is in vivo, human. The following applies: mean ± SD. The method, then: The clinical study was performed in accordance with the Declaration of Helsinki (revised version of Hong Kong 1989) as well as with the EC Note for guidance “Good clinical practice for studies on medicinal products in the European Community”. It was approved by the local Ethics Committee and the Spanish Health Department (Clinical assay number: 97/337). Thirty-one patients were randomized either to placebo or metformin according to the randomization tablets supply generated by LIPHA using the computer program RANCODE +3.1. A dietician with the aim of assuring a stable weight gave general diabetic dietary advice at the beginning of the study. […] Drug compliance was checked by tablet counts and any side effect was recorded at visit 3 (6 weeks after randomization) and at visit 4 (at the end of the study).
To assess glucose tolerance, an OGTT was performed after an overnight fast. Insulin sensitivity was evaluated by HOMA (Homeostasis model assessment) using basal (mean of three samples obtained at 5 minutes interval) glucose and insulin (Bonora E, et al., Diabetes Care, 2000, vol. 23, pp. 57-63). Beta cell function was calculated by CIGMA (Continuous infusion of glucose with model assessment) from achieved C-peptide and glucose values (Hosker J P, et al., Diabetologia 1985, vol. 28, pp. 401-11). […]

A further experiment concerns ob/ob mice. Nature of the experiment: Effects of administration of BPI on blood glucose concentration in ob/ob mice. It is filed as in vivo. The method, then:
The objective of this study was to evaluate the effects of administration of BPI on glucose concentration on ob/ob mice
Obese mice ob/ob were treated for 6 days with a daily intraperitoneal dose of 2.5 ng of human purified BPI per gram of body weight or vehicle (control mice). Before the treatment both groups (control and BPI treated) presented a high glycemia and no differences were identified between both groups (342±33 and 342±38 mg/dl, respectively).

The mark [5] stands for this setting: metformin, 12 weeks, p<0.05 within group.
Setting [6] is: metformin, 12 weeks, p<0.05 within group, listed as metformin.

Values joined by “and” are separate entries in the source; they are usually repeats but may differ in a detail not shown here. Identical values can stand only once. Marks after values point to notes of the source that are not given here.

As to `CN(C)C(=N)N=C(N)N` [Metformin, metformin], the HOMA sensitivity in experiment [1] (metformin group, baseline) was 37.4 ± 15.2%; in experiment [1] (setting [5]) it was 50.4 ± 23.2^b %; in experiment [1] (setting [6]), “improved”. For the same molecule, the “BPI (circulating, plasma)” value in the experiment with BPI (metformin group, baseline, median (interquartile range 1.26-7.73)) is 2.75 ng/mL; with BPI (metformin, 12 weeks, median (interquartile range 2.56-38.8), p = 0.017 within group), 7.49 ng/mL; in the experiment on BPI (metformin, 12 weeks, median (interquartile range 2.56-38.8), p = 0.017 within group, listed as metformin) it was “significantly increased”. Also, the “Achieved C-peptide” value in experiment [2] (metformin group, baseline) was 5.2 ± 1.2 ng/mL; in experiment [2] (setting [5]) it was 4.2 ± 1.0^b ng/ml; in experiment [2] (setting [6]), “statistically lower”. For the same molecule, the Achieved glucose in experiment [2] (metformin group, baseline) was 190.5 ± 18.9 mg/dL; in experiment [2] (metformin, 12 weeks) it was 174.6 ± 34.5 mg/dL. Moreover, the Achieved insulin in experiment [2] (metformin group, baseline) is given as 28.5 ± 13.5 mU/l; in experiment [2] (metformin, 12 weeks), 23.3 ± 7.6 mU/l. Besides, the “CIGMA beta cell function” value is given as 82.8 ± 24.0% in experiment [2] (metformin group, baseline); 90.9 ± 34.0% in experiment [2] (metformin, 12 weeks); “not modified” in experiment [2] (metformin, 12 weeks, listed as metformin). For the same molecule, the BMI in experiment [3] (metformin 850 mg tablets, two per day, 12 weeks) was found to be 27.7 ± 4.3 Kg/m^2; in experiment [3] (metformin group, baseline (before treatment)), 28.0 ± 4.5 Kg/m^2. In addition, the “Fasting C-peptide” value in experiment [3] (metformin group, baseline) is 2.5 ± 0.7 ng/mL; in experiment [3] (setting [5]), 1.8 ± 0.5^b ng/ml; in experiment [3] (setting [6]), “statistically lower”. The Fasting glucose in experiment [3] (metformin group, baseline) is 110.1 ± 9.9 mg/dL; in experiment [3] (metformin, 12 weeks, p<0.01 within group), 98.9 ± 15.7^a mg/dl; in experiment [3] (metformin, 12 weeks, p<0.01 within group, listed as metformin), “decreased”. Moreover, the Fasting insulin in experiment [3] (metformin group, baseline) is 11.6 ± 5.4 mU/l; in experiment [3] (setting [5]), 8.8 ± 3.5^b mU/l; in experiment [3] (setting [6]) it was “statistically lower”. The Waist circumference in experiment [3] (metformin group, baseline) turned out to be 95.9 ± 11.5; in experiment [3] (metformin, 12 weeks) it was 94.8 ± 9.4. The Waist-to-hip ratio in experiment [3] (metformin group, baseline) is reported as 0.96 ± 0.1; in experiment [3] (metformin, 12 weeks), 0.92 ± 0.07. Further, the “120′ OGTT glucose” value in experiment [4] (metformin group, baseline) was determined as 162.2 ± 27.8 mg/dL; in experiment [4] (metformin, 12 weeks) it was 140.6 ± 42.9 mg/dL.

B1: BPI: human purified bactericidal/permeability-increasing (BPI) protein, 456 residues, approximately 55 kD (protein, listed as Homo sapiens)
chain: VNPGVVVRISQKGLDYASQQGTAALQKELKRIKIPDYSDSFKIKHLGKGHYSFYSMDIREFQLPSSQISMVPNVGLKFSISNANIKISGKWKAQKRFLKMSGNFDLSIEGMSISADLKLGSNPTSGKPTITASSCSSHINSVHVHISKSKVGWLIQLFHKKIESALRNKMNSQVCEKVTNSVSSKLQPYFQTL
In the case of B1, the “GLU (blood glucose concentration), Mean” value in the experiment with ob/ob mice (BPI treated group, day 0 (before the treatment)) is 342 ± 38 mg/dL and 341.67 mg/dL; in the experiment on ob/ob mice (daily intraperitoneal 2.5 ng human purified BPI per gram body weight, 3 days of treatment), 289.00 mg/dL; in the experiment on ob/ob mice (daily intraperitoneal 2.5 ng human purified BPI per gram body weight, 6 days of treatment), 261 ± 21 mg/dL and 261.80 mg/dL. The Effect on glycemia entry in the experiment on ob/ob mice (treatment for 3 or 6 days with 2.5 ng/g BPI i.p. daily, vs control) was “pronounced decrease of glycemia”.
